Assay results reported in ChEMBL document CHEMBL1201862, “PubChem BioAssay data set” (2004).
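Protocol summary: plate cells (96-well), add compound at 5 concentrations, incubate 48 h, interpolate endpoints linearly. The concentration for 50% growth inhibition is given as GI50.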 The source made the active and inactive calls. Cut-off read from the data, not from the text of the source: active = GI50 up to about 1.1 µM and inactive = higher.

Columns and labels:
Assay in all cases: NCI-60 cell line screen, 48 h
HT-29 = system: HT-29
UO-31 = system: UO-31
OVCAR-5 = system: OVCAR-5
SK-MEL-2 = system: SK-MEL-2
HOP-62 = system: HOP-62
OVCAR-8 = system: OVCAR-8
RPMI-8226 = system: RPMI-8226
SR = system: SR
OVCAR-3 = system: OVCAR-3
MDA-MB-231 = system: MDA-MB-231
HCT-116 = system: HCT-116
OVCAR-4 = system: OVCAR-4
CAKI-1 = system: CAKI-1
MOLT-4 = system: MOLT-4
HCT-15 = system: HCT-15
NCI-H460 = system: NCI-H460
SF-268 = system: SF-268
RXF 393 = system: RXF 393
HOP-92 = system: HOP-92
PC-3 = system: PC-3

| Structure (SMILES) | GI50 (HT-29) | GI50 (UO-31) | GI50 (OVCAR-5) | GI50 (SK-MEL-2) | GI50 (HOP-62) | GI50 (OVCAR-8) | GI50 (RPMI-8226) | GI50 (SR) | GI50 (OVCAR-3) | GI50 (MDA-MB-231) | GI50 (HCT-116) | GI50 (OVCAR-4) | GI50 (CAKI-1) | GI50 (MOLT-4) | GI50 (HCT-15) [µM] | GI50 (NCI-H460) | GI50 (SF-268) | GI50 (RXF 393) | GI50 (HOP-92) | GI50 (PC-3) |
| --- | --- | --- | --- | --- | --- | --- | --- | --- | --- | --- | --- | --- | --- | --- | --- | --- | --- | --- | --- | --- |
| COc1ccc(N[S+]([O-])c2ccc(OC)cc2)cc1 (stereo not drawn) | 39.9 µM (inactive) | 12.5 µM (inactive) | > 100 µM (inactive) | 16.9 µM (inactive) | 61.8 µM (inactive) | 82.2 µM (inactive) | 47 µM (inactive) | 26.9 µM (inactive) | > 100 µM (inactive) | 37.9 µM (inactive) | 41.2 µM (inactive) | > 100 µM (inactive) | 52.7 µM (inactive) | 35.4 µM (inactive) | 11.2 | 29 µM (inactive) | 6.75 µM (inactive) |  |  |  |
| Cc1ccc(NC(=O)C(=O)C2C(=O)C3=C(CC2(C)C)NC2C=CC=CC2S3)c(C)c1 (stereo not drawn) | > 100 µM (inactive) | 48.2 µM (inactive) |  | > 100 µM (inactive) |  | 37.5 µM (inactive) |  |  |  | 53.5 µM (inactive) | > 100 µM (inactive) | > 100 µM (inactive) | > 100 µM (inactive) | 99.8 µM (inactive) | > 100 | > 100 µM (inactive) | 36.8 µM (inactive) | > 100 µM (inactive) | 38.1 µM (inactive) | > 100 µM (inactive) |
| CCCCN1CCC(O)(c2cc(C(=O)O)[nH]c2-c2cc(C)no2)C1=O (stereo not drawn) | > 100 µM (inactive) | > 100 µM (inactive) | > 100 µM (inactive) | > 100 µM (inactive) | > 100 µM (inactive) | > 100 µM (inactive) | > 100 µM (inactive) |  | > 100 µM (inactive) | > 100 µM (inactive) | > 100 µM (inactive) | > 100 µM (inactive) | > 100 µM (inactive) | > 100 µM (inactive) | > 100 | > 100 µM (inactive) | > 100 µM (inactive) | 43.5 µM (inactive) | > 100 µM (inactive) | > 100 µM (inactive) |
| CC1=C(O)C(=O)C2=C(C1=O)[C@@H]([C@@H](C)C/C=C/C(C)(C)O)CC[C@@H]2C | 69.3 µM (inactive) | 62.2 µM (inactive) | > 100 µM (inactive) | 39.5 µM (inactive) | > 100 µM (inactive) | 78.9 µM (inactive) | 23.5 µM (inactive) | 35.3 µM (inactive) | 25.5 µM (inactive) | > 100 µM (inactive) | 38.1 µM (inactive) |  | 37.9 µM (inactive) | 35.9 µM (inactive) | 31 | 55.5 µM (inactive) | 30.7 µM (inactive) |  |  | 51.1 µM (inactive) |
| COc1ccc(C(CC(=O)c2ccccc2)C(=O)c2ccc3c(c2)OCO3)cc1 (stereo not drawn) |  | > 100 µM (inactive) |  | > 100 µM (inactive) | > 100 µM (inactive) | > 100 µM (inactive) | > 100 µM (inactive) | > 100 µM (inactive) |  | > 100 µM (inactive) |  | > 10 µM (inactive) | > 100 µM (inactive) | > 100 µM (inactive) | > 100 | > 100 µM (inactive) | > 100 µM (inactive) |  |  | > 100 µM (inactive) |
| CC[C@H](CCCC[C@H]1CC[C@@H]2CC(=O)C[C@H]12)OC | 59 µM (inactive) |  |  | > 100 µM (inactive) | > 100 µM (inactive) | > 100 µM (inactive) | 34 µM (inactive) | 32.9 µM (inactive) | 85.3 µM (inactive) | > 100 µM (inactive) | 52.2 µM (inactive) | > 100 µM (inactive) | > 100 µM (inactive) | 53.6 µM (inactive) |  | > 100 µM (inactive) |  |  | 27.4 µM (inactive) |  |
| CCOC(=O)[C@H](C)OC(=O)[C@@](C)(NC(=O)c1ccccc1C(=O)OC)[C@@H]1NC=C(C(=O)OC)CS1 | > 100 µM (inactive) | > 100 µM (inactive) | > 100 µM (inactive) | > 100 µM (inactive) | > 100 µM (inactive) | > 100 µM (inactive) | 38.1 µM (inactive) | 20.4 µM (inactive) | > 100 µM (inactive) | > 100 µM (inactive) | > 100 µM (inactive) | > 100 µM (inactive) | > 100 µM (inactive) | 41.8 µM (inactive) | > 100 | 80.4 µM (inactive) | > 100 µM (inactive) | 97.9 µM (inactive) |  | > 100 µM (inactive) |
| CCCCCCCCCCCNC=O | 37.3 µM (inactive) | 33.8 µM (inactive) | 80.9 µM (inactive) | 24.8 µM (inactive) | > 100 µM (inactive) | 58.1 µM (inactive) | 28.1 µM (inactive) |  | 35.4 µM (inactive) | 48.6 µM (inactive) | 33.6 µM (inactive) | 45.3 µM (inactive) | 33.3 µM (inactive) | 22.6 µM (inactive) | 27.4 | 53.7 µM (inactive) | 49.1 µM (inactive) | 48.8 µM (inactive) | 54.3 µM (inactive) | 23.9 µM (inactive) |
| Cc1cc(Nc2ccc(NS(C)(=O)=O)cc2)c2c(ccc3[nH]ccc32)n1 | 27.5 µM (inactive) | > 100 µM (inactive) | 26.2 µM (inactive) | 15.9 µM (inactive) | 19.4 µM (inactive) | 22.9 µM (inactive) | 20.6 µM (inactive) |  | 13.1 µM (inactive) | 16.4 µM (inactive) | 17.2 µM (inactive) | 12.4 µM (inactive) | 29.5 µM (inactive) | 2.77 µM (inactive) | > 100 | 19.3 µM (inactive) | 7.24 µM (inactive) |  | 19 µM (inactive) | 20.4 µM (inactive) |
| CC12C=CC(C)(C3C(=O)C4C(C(=O)C31)C1(C)C=CC4(C)[S+]1[O-])[S+]2[O-] (stereo not drawn) | 47.6 µM (inactive) | > 100 µM (inactive) | > 100 µM (inactive) |  | > 100 µM (inactive) | 56 µM (inactive) |  |  | > 100 µM (inactive) | > 100 µM (inactive) |  |  | > 100 µM (inactive) |  | 87.3 | 53.1 µM (inactive) | > 100 µM (inactive) | > 100 µM (inactive) |  | > 100 µM (inactive) |
| OC1(c2ccccc2)CCN(Cc2c[nH]c3ccccc23)CC1 | 42.9 µM (inactive) | 31 µM (inactive) | > 100 µM (inactive) | 18 µM (inactive) | > 100 µM (inactive) | > 100 µM (inactive) | 39.5 µM (inactive) |  | > 100 µM (inactive) | 81.3 µM (inactive) | 40.5 µM (inactive) | > 100 µM (inactive) | > 100 µM (inactive) | 39.2 µM (inactive) | 49.5 | 49.1 µM (inactive) | > 100 µM (inactive) | 63.2 µM (inactive) | > 100 µM (inactive) | > 100 µM (inactive) |
| CC(=O)C1=C(C)N2C(=NC3=C(CCc4ccccc43)C2c2ccc(Cl)cc2)S1 (stereo not drawn) | 7.45 µM (inactive) | > 53.7 µM (inactive) | > 100 µM (inactive) | > 45 µM (inactive) | > 100 µM (inactive) | > 100 µM (inactive) | 2.12 µM (inactive) |  | > 38.7 µM (inactive) | > 100 µM (inactive) | 5.85 µM (inactive) | > 36.1 µM (inactive) | > 100 µM (inactive) | 3.8 µM (inactive) | 29.2 | 16.1 µM (inactive) | > 87.9 µM (inactive) | 5.56 µM (inactive) | 31 µM (inactive) | 10.2 µM (inactive) |
| O=C(NCCCN(CCCCN(CCCNC(=O)C(F)(F)F)CCCc1ccccc1)CCCc1ccccc1)C(F)(F)F | 1.55 µM (inactive) | 1.26 µM (inactive) | 12.8 µM (inactive) |  |  | 1.74 µM (inactive) | 2.63 µM (inactive) |  |  | 1.63 µM (inactive) | 2.47 µM (inactive) | 5.78 µM (inactive) | 1.94 µM (inactive) | 1.8 µM (inactive) | 1.44 | 1.87 µM (inactive) | 1.63 µM (inactive) | 1.3 µM (inactive) | 1.62 µM (inactive) |  |
| O=c1ccc(-c2ccc(-n3ccnc3)cc2)nn1CCO | > 100 µM (inactive) | > 100 µM (inactive) | > 100 µM (inactive) |  | > 100 µM (inactive) | > 100 µM (inactive) | > 100 µM (inactive) | > 100 µM (inactive) | > 100 µM (inactive) |  | > 100 µM (inactive) | > 100 µM (inactive) | > 100 µM (inactive) | > 100 µM (inactive) | > 100 | > 100 µM (inactive) | > 100 µM (inactive) | > 100 µM (inactive) | > 100 µM (inactive) | > 100 µM (inactive) |
| NS(=O)(=O)c1ccc(NS(=O)(=O)c2ccc(NC(=O)N(c3ccccc3)c3ccccc3)cc2)cc1 | 57.1 µM (inactive) | > 100 µM (inactive) | > 100 µM (inactive) | 48.5 µM (inactive) | 52.8 µM (inactive) | > 100 µM (inactive) | 24.8 µM (inactive) |  | 19.1 µM (inactive) | > 100 µM (inactive) | 82.4 µM (inactive) | 45.2 µM (inactive) | 67 µM (inactive) | 34 µM (inactive) | > 100 | 65.6 µM (inactive) | 64.1 µM (inactive) | 21.9 µM (inactive) | 51.3 µM (inactive) | 51.1 µM (inactive) |
| O=c1ccc2ccc(O)cc2o1 [UMBELLIFERONE] | > 100 µM (inactive) | > 100 µM (inactive) | > 100 µM (inactive) | > 100 µM (inactive) | > 100 µM (inactive) | > 100 µM (inactive) | > 100 µM (inactive) |  | > 100 µM (inactive) | > 100 µM (inactive) | > 100 µM (inactive) | > 100 µM (inactive) | > 100 µM (inactive) | > 100 µM (inactive) | > 100 |  | > 100 µM (inactive) | > 100 µM (inactive) | > 100 µM (inactive) | > 100 µM (inactive) |
